In experiment [1] the target is T1, 3-hydroxy-3-methylglutaryl coenzyme A reductase (Rattus norvegicus, UniProt P51639).
T1 construct: from tissue
T1 sequence (P51639 1-887): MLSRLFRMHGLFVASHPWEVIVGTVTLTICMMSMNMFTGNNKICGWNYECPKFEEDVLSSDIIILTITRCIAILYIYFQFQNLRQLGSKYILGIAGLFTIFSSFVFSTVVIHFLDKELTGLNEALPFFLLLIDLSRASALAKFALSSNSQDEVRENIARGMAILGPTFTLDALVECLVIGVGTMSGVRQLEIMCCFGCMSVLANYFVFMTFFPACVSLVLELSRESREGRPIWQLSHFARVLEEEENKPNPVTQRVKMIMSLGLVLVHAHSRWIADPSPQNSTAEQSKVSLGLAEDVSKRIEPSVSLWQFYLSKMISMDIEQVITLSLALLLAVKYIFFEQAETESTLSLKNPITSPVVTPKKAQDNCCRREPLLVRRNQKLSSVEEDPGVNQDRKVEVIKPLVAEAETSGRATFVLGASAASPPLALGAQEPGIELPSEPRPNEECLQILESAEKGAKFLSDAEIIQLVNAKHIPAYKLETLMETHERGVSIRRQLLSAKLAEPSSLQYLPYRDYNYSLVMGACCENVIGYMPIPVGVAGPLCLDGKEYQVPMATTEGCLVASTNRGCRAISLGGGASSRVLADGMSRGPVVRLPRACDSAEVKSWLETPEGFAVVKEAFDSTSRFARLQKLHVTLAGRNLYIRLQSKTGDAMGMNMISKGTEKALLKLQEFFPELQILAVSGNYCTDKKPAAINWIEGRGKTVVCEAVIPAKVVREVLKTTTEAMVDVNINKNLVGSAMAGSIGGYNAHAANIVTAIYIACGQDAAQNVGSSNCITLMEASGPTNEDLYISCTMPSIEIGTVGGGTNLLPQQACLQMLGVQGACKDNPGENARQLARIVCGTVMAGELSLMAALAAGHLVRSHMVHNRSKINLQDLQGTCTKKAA
Description: Assay Method A: inhibitory activity to cholesterol biosynthesis in vitro, 50% inhibition of the enzyme activity (method of Knauss et al). It is filed as biochemical.

In experiment [2] the test system is cholesterol biosynthesis in L-cells of mice (929). Kind of experiment: Assay Method B: inhibition of 14C-cholesterol biosynthesis from 14C-acetic acid in L-cells of mice (929) (method of Kandutsch et al). It is filed as cell-based. As to conditions: Mus musculus, mole concentration for 50% inhibition of cholesterol biosynthesis, read-out: ID50 (M) Assay Method B. From the text:
The inhibitory activity of these compounds to cholesterol biosynthesis was further evaluated according to the method described in A. A. Kandutsch et al, Journal of Biological Chemistry, 248, 8408 (1973) by measuring the amount of ^14 C-cholesterol biosynthesized from ^14 C-acetic acid using L-cells of mice (929), and the activity was expressed by the mole concentration [I50 (M)] for 50% inhibition of cholesterol biosynthesis (Assay Method B).

[3] abbreviates: Assay Method A, in vitro, mole concentration for 50% inhibition of the enzyme activity, read-out: ID50 (M) Assay Method A.

Where two headings read alike, the source gives them in different places.

These results are taken from patent US4262013A, “Mevalonolactone derivatives and process for the preparation thereof” (Sankyo Company Limited, priority 1977, dated 1981).

On to `Cc1cc(OCc2ccccc2)cc(C)c1CCC1CC(C)(O)CC(=O)O1` (stereo not drawn) [U, 3-Hydroxy-3-methyl-7-(p-benzyloxy-o,o'-dimethylphenyl)-5-heptanolide], for which the IC50 in experiment [1] (setting [3]) came out at 3.8e-06 M; in experiment [2] it was 5.4e-06 M.

Take `CC1(O)CC(=O)OC(CCc2ccc(OCc3ccccc3)cc2)C1` (stereo not drawn) [H, 3-Hydroxy-3-methyl-7-(p-benzyloxyphenyl)-5-heptanolide]: the IC50 in experiment [1] (setting [3]) was 4.2e-06 M; in experiment [2] it was 6e-06 M.

Regarding `CC(=O)OC1(C)CC(=O)OC(CCc2ccc(OCc3ccccc3)cc2)C1` (stereo not drawn) [G, 3-Acetoxy-3-methyl-7-(p-benzyloxyphenyl)-5-heptanolide], the values for the IC50 in experiment [1] (setting [3]) and in experiment [2] were 4.5e-05 M and 3.1e-05 M, respectively.

With `CCOC(=O)C(C)(C)Oc1ccc(Cl)cc1` [Clofibrate, reference compound], the IC50 in experiment [1] was 0.001 M; in experiment [2], 8e-05 M.

Consider `CC1(O)CC(=O)OC(CCc2ccccc2)C1` (stereo not drawn) [C, 3-Hydroxy-3-methyl-7-phenyl-5-heptanolide], for which the figures for the IC50 in experiment [1] (setting [3]) and in experiment [2] were 0.00036 M and 4.2e-05 M, respectively.

As to `CC1(O)CC(=O)OC(CCc2ccccc2OCc2ccccc2)C1Br` (stereo not drawn) [K, 3-Hydroxy-3-methyl-4-bromo-7-(o-benzyloxyphenyl)-5-heptanolide], the IC50 in experiment [1] (setting [3]) amounted to 4.7e-05 M; in experiment [2], 8.8e-05 M.

For `COc1cc(CCC2CC(C)(O)CC(=O)O2)ccc1OC(C)=O` (stereo not drawn) [W, 3-Hydroxy-3-methyl-7-(p-acetoxy-m-methoxyphenyl)-5-heptanolide], the IC50 is 4.5e-05 M in experiment [1] (setting [3]) and 8.3e-05 M in experiment [2].

With `CC1(O)CC(=O)OC(CCc2ccccc2OCc2ccccc2)C1` (stereo not drawn) [I, 3-Hydroxy-3-methyl-7-(o-benzyloxyphenyl)-5-heptanolide], the IC50 in experiment [1] (setting [3]) was 3.3e-05 M; in experiment [2] it was 5e-05 M.

In the case of `COc1ccc(CCC2CC(C)(O)CC(=O)O2)cc1` (stereo not drawn) [P, 3-Hydroxy-3-methyl-7-(p-methoxyphenyl)-5-heptanolide], the IC50 in experiment [1] (setting [3]) was found to be 6.3e-05 M.

For `CC1(O)CC(=O)OC(CCc2ccc(O)cc2)C1` (stereo not drawn) [F, 3-Hydroxy-3-methyl-7-(p-hydroxyphenyl)-5-heptanolide], the IC50 in experiment [1] (setting [3]) was 6.6e-05 M.

On to `CC1(O)CC(=O)OC(CCc2ccccc2)C1Br` (stereo not drawn) [Compound D, 3-Hydroxy-3-methyl-4-bromo-7-phenyl-5-heptanolide], for which the IC50 in experiment [1] (setting [3]) was found to be 0.0001 M.

With `CC1C(CCc2ccccc2)OC(=O)CC1(C)O` (stereo not drawn) [E, 3-Hydroxy-3,4-dimethyl-7-phenyl-5-heptanolide], the IC50 in experiment [1] (setting [3]) came to 6.7e-05 M.

Turning to `CC1C(C=Cc2ccccc2)OC(=O)CC1(C)O` (stereo not drawn) [Q, 3-Hydroxy-3,4-dimethyl-7-phenyl-6-hepten-5-olide], in experiment [1] (setting [3]), the IC50 worked out at 6.4e-05 M.

With `CC1(O)CC(=O)OC(CCc2ccc(Cl)cc2)C1Br` (stereo not drawn) [O, 3-Hydroxy-3-methyl-4-bromo-7-(p-chlorophenyl)-5-heptanolide], in experiment [1] (setting [3]), the IC50 was 6.3e-05 M.

For `CC1(O)CC(=O)OC(CCc2ccc(OCc3ccc(F)cc3)cc2)C1` (stereo not drawn) [L, 3-Hydroxy-3-methyl-7-[p-(p-fluorobenzyloxy)phenyl]-5-heptanolide], the IC50 in experiment [2] was determined as 5e-05 M.

On to `CC1(O)CC(=O)OC(CCc2ccc(Cl)cc2)C1` (stereo not drawn) [N, 3-Hydroxy-3-methyl-7-(p-chlorophenyl)-5-heptanolide], for which the IC50 in experiment [1] (setting [3]) was determined as 4.5e-05 M; in experiment [2], 3e-05 M.

For the compound `CC1(O)CC(=O)OC(CCc2ccc(OCc3ccc(Cl)cc3)cc2)C1` (stereo not drawn) [M, 3-Hydroxy-3-methyl-7-[p-(p-chlorobenzyloxy)phenyl]-5-heptanolide], the IC50 in experiment [2] stood at 1.9e-05 M.

`CC1(O)CC(=O)OC(c2ccc(OCc3ccccc3)cc2)C1` (stereo not drawn) [A, 3-Hydroxy-3-methyl-5-(p-benzyloxyphenyl)-5-pentanolide]: the IC50 in experiment [1] (setting [3]) came out at 6.2e-05 M; in experiment [2], 0.00013 M.

With `Cc1cc(OCc2ccccc2)cc(C)c1CCC1OC(=O)CC(C)(O)C1Br` (stereo not drawn) [V, 3-Hydroxy-3-methyl-4-bromo-7-(p-benzyloxy-o,o'-dimethylphenyl)-5-heptanolide], in experiment [2], the IC50 is 1e-05 M.

On to `CC1(O)CC(=O)OC(CCCc2ccc(OCc3ccccc3)cc2)C1` (stereo not drawn) [Y, 3-Hydroxy-3-methyl-8-(p-benzyloxyphenyl)-5-octanolide], for which the IC50 in experiment [1] (setting [3]) is 4e-06 M; in experiment [2], 7e-06 M.

Turning to `COc1cc(CCC2CC(C)(O)CC(=O)O2)ccc1OCc1ccccc1` (stereo not drawn) [T, 3-Hydroxy-3-methyl-7-(p-benzyloxy-m-methoxyphenyl)-5-heptanolide], the figures for the IC50 in experiment [1] (setting [3]) and in experiment [2] were 2.1e-05 M and 1.1e-05 M, respectively.

On to `CC1(O)CC(=O)OC(c2ccc(-c3ccccc3)cc2)C1` (stereo not drawn) [B, 3-Hydroxy-3-methyl-5-(4-biphenylyl)-5-pentanolide], for which the IC50 in experiment [1] (setting [3]) was 0.0001 M; in experiment [2] it was 0.00016 M.

As for `CC1(O)CC(=O)OC(CCCc2ccc(OCc3ccccc3)cc2)C1Br` (stereo not drawn) [Z, 3-Hydroxy-3-methyl-4-bromo-8-(p-benzyloxyphenyl)-5-octanolide], the values for the IC50 in experiment [1] (setting [3]) and in experiment [2] were 6.7e-06 M and 1.2e-05 M, respectively.

On to `CC1(O)CC(=O)OC(C=Cc2ccc(OCc3ccccc3)cc2)C1` (stereo not drawn) [R, 3-Hydroxy-3-methyl-7-(p-benzyloxyphenyl)-6-hepten-5-olide], for which the values for the IC50 in experiment [1] (setting [3]) and in experiment [2] were 8.6e-06 M and 1.3e-05 M, respectively.

With `Cc1cc(OC(=O)c2ccccc2)cc(C)c1CCC1CC(C)(O)CC(=O)O1` (stereo not drawn) [X, 3-Hydroxy-3-methyl-7-(p-benzoyloxy-o,o'-dimethylphenyl)-5-heptanolide], the IC50 was 3.9e-06 M in experiment [1] (setting [3]) and 6.5e-06 M in experiment [2].

`CC1(O)CC(=O)OC(CCc2ccc(OCc3ccccc3)cc2)C1Br` (stereo not drawn) [J, 3-Hydroxy-3-methyl-4-bromo-7-(p-benzyloxyphenyl)-5-heptanolide]: the values for the IC50 in experiment [1] (setting [3]) and in experiment [2] were 5.6e-06 M and 3e-05 M, respectively.

Take `CC1(O)CC(=O)OC(C=Cc2cccc(OCc3ccccc3)c2)C1` (stereo not drawn) [S, 3-Hydroxy-3-methyl-7-(m-benzyloxyphenyl)-6-hepten-5-olide]: the figures for the IC50 in experiment [1] (setting [3]) and in experiment [2] were 7.1e-05 M and 0.00012 M, respectively.
